{"source": "patent US20260240959A1", "about": "“METHODS FOR IN VIVO EDITING OF KLKB1” (INTELLIA THERAPEUTICS, INC., priority 2022, published 2026)", "key": {"[1]": {"assay": "Half-lives of HAE prophylactic products (from product sources)", "conditions": "for half-life: human"}, "[2]": {"conditions": "cited from earlier work"}, "[3]": {"assay": "Plasma pharmacokinetics of LP01 (LC-MS/MS) in HAE patients", "assay_type": "in vivo, human", "experimental": "Blood samples were collected to assess plasma concentration time profiles pre-infusion, during the infusion period, and at the end of the infusion period. Post infusion samples were collected at predefined time points as indicated in the graph (FIG. 37). LP01 (Lipid A) was quantified using liquid chromatography with tandem mass spectrometry (LC-MS/MS) methods. Plasma samples were evaluated using validated methods following regulatory guidelines."}}, "data": [{"molecule": "C#C[C@]1(O)CC[C@H]2[C@@H]3CCC4=Cc5oncc5C[C@]4(C)[C@H]3CC[C@@]21C", "note": "[Danocrine, Danazol, reference compound]", "values": [{"measurement": "half-life", "setting": "[1]", "value": 48.5, "unit": "h"}, {"measurement": "Half Life (t1/2)", "setting": "[2]", "value": 9.7, "unit": "h"}]}, {"molecule": "CCCCC/C=C\\C/C=C\\CCCCCCCC(=O)OCC(COC(=O)CCC(OCCCCCCCC)OCCCCCCCC)COC(=O)OCCCN(CC)CC", "note": "(centres unmarked) [LP01, (9Z,12Z)-3-((4,4-bis(octyloxy)butanoyl)oxy)-2-((((3-(diethylamino)propoxy)carbonyl)oxy)methyl)propyl octadeca-9,12-dienoate]", "values": [{"measurement": "half-life", "setting": "[3]; human, single dose IV infusion of NTLA-2002 25, 50 or 75 mg, range of cohort means, read-out: mean t1/2", "value": "16.8 to 21.3", "unit": "h"}, {"measurement": "decline below limit of quantification by", "setting": "[3]; single dose IV infusion of NTLA-2002", "value": "≤ 15", "unit": "days"}]}, {"molecule": "N#Cc1cccc([C@@H](NCC2CC2)c2ccc(F)c(NC(=O)c3cc(C(F)(F)F)nn3-c3cccc(CN)c3)c2)c1", "note": "[Orladeyo, Berotralstat, reference compound]", "values": [{"measurement": "half-life", "setting": "[1]", "value": 465, "unit": "h"}, {"measurement": "Half Life (t1/2)", "setting": "[2]", "value": 93, "unit": "h"}]}, {"molecule": "C[C@]12COC(=O)C[C@@H]1CC[C@@H]1[C@@H]2CC[C@@]2(C)[C@H]1CC[C@]2(C)O", "note": "[Oxandrin, Oxandrolone]", "values": [{"measurement": "half-life", "setting": "[1]", "value": 66.5, "unit": "h"}]}, {"molecule": "Cinryze: C1 Esterase Inhibitor [Human], HAE prophylactic product", "values": [{"measurement": "Estimated washout for (5 half-lives)", "setting": "[1]", "value": 310, "unit": "hours = ~13 days"}, {"measurement": "Half Life (t1/2)", "setting": "[2]", "value": "56 to 62", "unit": "h"}]}, {"molecule": "Haegarda: C1 Esterase Inhibitor [Human], HAE prophylactic product", "values": [{"measurement": "Estimated washout for (5 half-lives)", "setting": "[1]", "value": 345, "unit": "hours = ~14.5 days"}, {"measurement": "Half Life (t1/2)", "setting": "[2]", "value": 69, "unit": "h"}]}]}
